Data: patent publication US20200140826A1, “Maintenance and Expansion of Pancreatic Progenitor Cells” (AGENCY FOR SCIENCE, TECHNOLOGY AND RESEARCH, priority 2017, published 2020)

How the values were obtained:
cPP cells [1] = test: Omission of individual components from complete cPP culture medium on 3T3-J2 feeders (phase contrast, qRT-PCR); format: cell-based, human; conditions: for Effect of removing the component on cPP expansion, colony size and morphology: component individually omitted from complete medium, cPP cells cultured 6 days on 3T3-J2 feeders
Method: Gentle cell dissociation reagent (STEMCELL Technologies, 07174) was used to passage cPP cells as aggregates that were then seeded at a 1:6 split ratio onto a layer of 3T3-J2 feeders (0.5×10^6 to 1×10^6 cells/cm^2) in medium composed of advanced DMEM/F12 (Thermo Fisher Scientific, 21634010), 2 mM L-glutamine (Thermo Fisher Scientific, 25030), 100 U/mL penicillin/streptomycin (Thermo Fisher Scientific, 15140122), 1× N2 supplement (Thermo Fisher Scientific, 17502-048), 1× B27 supplement (Thermo Fisher Scientific, 17504-044), 30 nM dexamethasone (STEMCELL Technologies, 72092), 50 ng/mL EGF (R&D Systems, 236-EG-200), 50 ng/mL FGF10 (Source Bioscience, ABC144), 3 μM RA (Sigma, R2625), 10 μM SB431542 (Calbiochem, 616464), and 1 μM DAPT (Sigma, D5942). If plating single cPP cells, complete medium was supplemented with 10 μM Y27632 for the first 48 hr (Sigma, Y0503). Medium was completely replenished every 2-3 days.
RNA was isolated from samples using an RNeasy mini kit (Qiagen, cat # 74104) and reverse transcribed to generate cDNA using a high-capacity reverse transcription kit and random hexamer primers (Applied Biosystems, 4368814,1 μg RNA per 20 μL reaction). Quantitative RT-PCR was carried out using SYBR Select Mastermix (Applied Biosystems, 4472908). Data were analyzed using the ΔΔCT method, and normalized to expression of the housekeeping gene TBP in each sample.
To establish the roles played by the growth factors and small molecules in our culture media, each was removed individually and the effect on differentiation and proliferation was assessed.

cPP cells [2] = test: Microbioreactor array (MBA) screening of cPP maintenance and proliferation; format: cell-based, human; conditions: relatively low concentration (1 μM) in cPP culture medium
Method: Microbioreactor arrays were used to screen the effects of combinations of exogenous signaling molecules on cPP cells. MBAs provide combinatorial mixing of input factors, combined with continuous flow of culture media over culture chambers. MBAs were autoclaved and filled with sterile PBS, then coated (2-4 h, room temperature) with a single 1 mL injection of hESC-qualified matrigel at the manufacturer's recommended concentration. cPP cells in suspension in complete medium at 5×10^6/mL were then seeded in the MBA, giving a surface density of 50×10^6cells/cm^2. Cells were allowed to attach for a total of 20 h, with a media exchange performed every 6 h. […] Nuclear segmentation and quantification of nuclear intensities of PDX1 and SOX9 then proceeded similarly as previously described.
To quantify the effect of exogenous signaling molecules on the maintenance and expansion of cPP cells, this study used a microbioreactor array (MBA) screening platform to measure differentiation and proliferation. […] The study then used an image-segmentation algorithm to identify individual nuclei and quantify immunofluorescence staining for PDX1 and SOX9, thereby enabling the determination of the percentage of double-positive cells following exposure to different growth factor regimes. […]

| Compound | Effect of removing the component on cPP expansion, colony size and morphology (cPP cells [1]) | Effect of removing the component on viability (cPP cells [1]; component removed from the culture media over multiple passages) | Effect on proliferation of cPP cells (cPP cells [2]) |
| --- | --- | --- | --- |
| C[C@H](NC(=O)Cc1cc(F)cc(F)c1)C(=O)N[C@H](C(=O)OC(C)(C)C)c1ccccc1 [DAPT] | did not significantly affect colony size or morphology in the short term | noticeable loss of viability | promotes proliferation of cPP cells |
| NC(=O)c1ccc(-c2nc(-c3ccc4c(c3)OCO4)c(-c3ccccn3)[nH]2)cc1 [SB431542] | caused colonies to detach from the feeder layer |  |  |
| EGF: epidermal growth factor, growth factor in the cPP culture medium (50 ng/mL) (NSDSECPLSHDGYCLHDGVCMYIEALDKYACNCVVGYIGERCQYRDLKWWELR; Epidermal growth factor; UniProt P01133 971-1023, looked up) | prevented cPP expansion |  |  |
